# Measured values taken from ChEMBL document CHEMBL1151184, “New diterpenes from Croton insularis” (J Nat Prod, 2004).
# Legend:
# L1210 = assay: Cytotoxicity against mouse L1210 cells by MTT assay; assay type: functional, cell-based
# HeLa = assay: Cytotoxicity against human HeLa cells by MTT assay; assay type: functional, cell-based
SMILES,IC50 (L1210) [µM],IC50 (HeLa) [µM]
CC1(C)C(=O)CC[C@@]2(C)[C@@H]3C[C@@H]4[C@@H]5C[C@@]3(CC[C@@H]12)C[C@@]45C,103,131
C[C@@H]1CC[C@]2(C)[C@H](CC[C@@H](O)[C@]2(C)O)[C@@]1(C)CC(=O)c1ccoc1,98,> 200
C[C@@]12CCC[C@@](C)(C(=O)O)[C@@H]1CC[C@@]13C[C@H]4[C@@H](C[C@H]12)[C@]4(C)C3,99,99
CC1(C)[C@@H](O)CC[C@@]2(C)[C@@H]3C[C@@H]4[C@@H]5C[C@@]3(CC[C@@H]12)C[C@@]45C,133,> 200
C[C@]1(CO)[C@@H]2CC[C@@]34C[C@H]5[C@@H](C[C@H]3[C@]2(C)CC[C@H]1O)[C@]5(C)C4,91,97
C[C@@H]1CC[C@]2(C)[C@H](CC[C@@H](O)[C@]2(C)O)[C@@]12C=C(c1ccoc1)OC2 [CROTINSULARIN],128,148
